Reference: US6852759B2, “Process for the synthesis of trans-alkenoic acids, use thereof” (priority 2002, dated 2005)

Tests used:
[1] = tested on: CCl4 induced hepatic injury in rats; assay: Hepatoprotective activity, prophylactic study, CCl4; format: in vivo
[2] = tested on: CCl4 induced hepatic injury in rats; assay: Hepatoprotective activity, curative study, CCl4; format: in vivo
[3] = 12.5 mg/kg p.o. + CCl4, prophylactic
[4] = 25 mg/kg p.o. + CCl4, prophylactic
[5] = 50 mg/kg p.o. + CCl4, prophylactic
[6] = 100 mg/kg p.o. + CCl4, prophylactic
[7] = TCA alone 100 mg/kg p.o., no CCl4, prophylactic study
[8] = 12.5 mg/kg p.o. + CCl4, curative
[9] = 100 mg/kg p.o. + CCl4, curative

SMILES: CCCCCCCC/C=C/CCCCCCCCCCCCCC(=O)O [TCA, t-Tetracos-15-enoic acid]
- Serum ALP [1, 3]: 45.25 ± 2.37^NS μmole of p-nitrophenol formed/min/L
- Serum ALP, hepatoprotective activity percent [1, 3]: (26.32 ± 6.55) percent
- Serum Bilirubin [1, 3]: 0.47 ± 0.01 mg %
- Serum Bilirubin, hepatoprotective activity percent [1, 3]: (47.98 ± 2.02) percent
- Serum GOT [1, 3]: 695.16 ± 67.28 Units
- Serum GOT, hepatoprotective activity percent [1, 3]: (33.87 ± 7.99) percent
- Serum GPT [1, 3]: 992.34 ± 73.25 Units
- Serum GPT, hepatoprotective activity percent [1, 3]: (41.52 ± 4.97) percent
- Serum Triglycerides [1, 3]: 13.51 ± 0.51^NS mg %
- Serum Triglycerides, hepatoprotective activity percent [1, 3]: (26.40 ± 7.84) percent
- Serum ALP [1, 4]: 39.48 ± 2.46 μmole of p-nitrophenol formed/min/L
- Serum ALP, hepatoprotective activity percent [1, 4]: (43.28 ± 7.81) percent
- Serum Bilirubin [1, 4]: 0.42 ± 0.01 mg %
- Serum Bilirubin, hepatoprotective activity percent [1, 4]: (55.33 ± 2.86) percent
- Serum GOT [1, 4]: 674.44 ± 53.20 Units
- Serum GOT, hepatoprotective activity percent [1, 4]: (36.33 ± 6.32) percent
- Serum GPT [1, 4]: 924.39 ± 39.82 Units
- Serum GPT, hepatoprotective activity percent [1, 4]: (46.10 ± 2.70) percent
- Serum Triglycerides [1, 4]: 12.11 ± 0.70^NS mg %
- Serum Triglycerides, hepatoprotective activity percent [1, 4]: (47.72 ± 11.33) percent
- Serum ALP [1, 5]: 35.19 ± 2.90 μmole of p-nitrophenol formed/min/L
- Serum ALP, hepatoprotective activity percent [1, 5]: (56.81 ± 9.15) percent
- Serum Bilirubin [1, 5]: 0.34 ± 0.01 mg %
- Serum Bilirubin, hepatoprotective activity percent [1, 5]: (67.67 ± 2.30) percent
- Serum GOT [1, 5]: 543.99 ± 79.93 Units
- Serum GOT, hepatoprotective activity percent [1, 5]: (51.82 ± 9.94) percent
- Serum GPT [1, 5]: 636.69 ± 44.49 Units
- Serum GPT, hepatoprotective activity percent [1, 5]: (65.66 ± 3.02) percent
- Serum Triglycerides [1, 5]: 11.89 ± 0.75^NS mg %
- Serum ALP [1, 6]: 30.14 ± 2.54 μmole of p-nitrophenol formed/min/L
- Serum ALP, hepatoprotective activity percent [1, 6]: (72.92 ± 8.07) percent
- Serum Bilirubin [1, 6]: 0.26 ± 0.02 mg %
- Serum Bilirubin, hepatoprotective activity percent [1, 6]: (79.04 ± 3.57) percent
- Serum GOT [1, 6]: 432.08 ± 37.38 Units
- Serum GOT, hepatoprotective activity percent [1, 6]: (65.10 ± 4.50) percent
- Serum GPT [1, 6]: 419.72 ± 17.60 Units
- Serum GPT, hepatoprotective activity percent [1, 6]: (80.39 ± 1.19) percent
- Serum Triglycerides [1, 6]: 11.20 ± 0.68^NS mg %
- Serum Triglycerides, hepatoprotective activity percent [1, 6]: (61.75 ± 1.44) percent
- Serum ALP [1, 7]: 23.15 ± 2.92 μmole of p-nitrophenol formed/min/L
- Serum Bilirubin [1, 7]: 0.17 ± 0.02 mg %
- Serum GOT [1, 7]: 110.53 ± 25.55 Units
- Serum GPT [1, 7]: 102.66 ± 28.41 Units
- Serum Triglycerides [1, 7]: 6.98 ± 0.79 mg %
- Serum ALP [2, 8]: 51.81 ± 3.94^NS μmole of p-nitrophenol formed/min/L
- Serum ALP, hepatoprotective activity percent [2, 8]: (27.87 ± 9.48) percent
- Serum Bilirubin [2, 8]: 0.54 ± 0.02 mg %
- Serum Bilirubin, hepatoprotective activity percent [2, 8]: (44.52 ± 3.66) percent
- Serum GOT [2, 8]: 524.23 ± 34.93 Units
- Serum GOT, hepatoprotective activity percent [2, 8]: (37.12 ± 5.14) percent
- Serum GPT [2, 8]: 1001.86 ± 48.55 Units
- Serum GPT, hepatoprotective activity percent [2, 8]: (35.59 ± 3.37) percent
- Serum Triglycerides [2, 8]: 12.57 ± 0.61^NS mg %
- Serum Triglycerides, hepatoprotective activity percent [2, 8]: (24.12 ± 10.07) percent
- Serum ALP ([2]; 25 mg/kg p.o. + CCl4, curative): 50.92 ± 1.62 μmole of p-nitrophenol formed/min/L
- Serum ALP, hepatoprotective activity percent ([2]; 25 mg/kg p.o. + CCl4, curative): (34.03 ± 3.89) percent
- Serum Bilirubin ([2]; 25 mg/kg p.o. + CCl4, curative): 0.47 ± 0.03 mg %
- Serum Bilirubin, hepatoprotective activity percent ([2]; 25 mg/kg p.o. + CCl4, curative): (53.51 ± 4.06) percent
- Serum GOT ([2]; 25 mg/kg p.o. + CCl4, curative): 448.28 ± 54.88 Units
- Serum GOT, hepatoprotective activity percent ([2]; 25 mg/kg p.o. + CCl4, curative): (48.31 ± 8.808) percent
- Serum GPT ([2]; 25 mg/kg p.o. + CCl4, curative): 772.68 ± 47.66 Units
- Serum GPT, hepatoprotective activity percent ([2]; 25 mg/kg p.o. + CCl4, curative): (51.52 ± 3.31) percent
- Serum Triglycerides ([2]; 25 mg/kg p.o. + CCl4, curative): 11.81 ± 1.05^NS mg %
- Serum Triglycerides, hepatoprotective activity percent ([2]; 25 mg/kg p.o. + CCl4, curative): (36.23 ± 18.23) percent
- Serum ALP ([2]; 50 mg/kg p.o. + CCl4, curative): 43.63 ± 2.82 μmole of p-nitrophenol formed/min/L
- Serum ALP, hepatoprotective activity percent ([2]; 50 mg/kg p.o. + CCl4, curative): (51.57 ± 6.78) percent
- Serum Bilirubin ([2]; 50 mg/kg p.o. + CCl4, curative): 0.39 ± 0.02 mg %
- Serum Bilirubin, hepatoprotective activity percent ([2]; 50 mg/kg p.o. + CCl4, curative): (64.25 ± 3.76) percent
- Serum GOT ([2]; 50 mg/kg p.o. + CCl4, curative): 365.43 ± 29.43 Units
- Serum GOT, hepatoprotective activity percent ([2]; 50 mg/kg p.o. + CCl4, curative): (60.50 ± 4.33) percent
- Serum GPT ([2]; 50 mg/kg p.o. + CCl4, curative): 582.12 ± 37.77 Units
- Serum GPT, hepatoprotective activity percent ([2]; 50 mg/kg p.o. + CCl4, curative): (64.76 ± 2.62) percent
- Serum Triglycerides ([2]; 50 mg/kg p.o. + CCl4, curative): 11.06 ± 0.61 mg %
- Serum Triglycerides, hepatoprotective activity percent ([2]; 50 mg/kg p.o. + CCl4, curative): (48.86 ± 10.64) percent
- Serum ALP [2, 9]: 32.93 ± 2.13 μmole of p-nitrophenol formed/min/L
- Serum ALP, hepatoprotective activity percent [2, 9]: (77.31 ± 5.13) percent
- Serum Bilirubin [2, 9]: 0.29 ± 0.02 mg %
- Serum Bilirubin, hepatoprotective activity percent [2, 9]: (76.54 ± 3.66) percent
- Serum GOT [2, 9]: 318.96 ± 16.15 Units
- Serum GOT, hepatoprotective activity percent [2, 9]: (67.35 ± 2.38) percent
- Serum GPT [2, 9]: 457.55 ± 18.18 Units
- Serum GPT, hepatoprotective activity percent [2, 9]: (73.41 ± 1.26) percent
- Serum Triglycerides [2, 9]: 10.37 ± 0.65 mg %
- Serum Triglycerides, hepatoprotective activity percent [2, 9]: (61.02 ± 11.24) percent
